Here are results for 10 compounds from US9169209B2, “Compounds and compositions for the inhibition of NAMPT” (FORMA TM, LLC, priority 2011, dated 2015).

One assay has as its system A2780 cells. In words: In-Vitro Cell Proliferation Assay (SRB, 72 hours). The assay is classed as cell-based. The note with it: Homo sapiens, A2780, 72 h, A2780 cells, 72 hours, sulforhodamine B; read-out: A2780 IC50. The essentials: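 Plated cells exposed to serially diluted compound (0.1% DMSO final) for 72 h at 37 °C, 5% CO2. Viability by SRB staining after TCA fixation, absorbance 570 nm, media-only background subtracted; % inhibition relative to DMSO-treated cells, interpolated between bracketing concentrations.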

In a further assay the target is NAMPT (Homo sapiens (Human), UniProt P43490). In words: Biochemical Inhibition Assay (NAMPT enzymatic reaction, NMN quantified by mass spectrometry). The note with it: recombinant His-tagged NAMPT, 33 nM; 1 μM NAM; read-out: Biochem IC50. The procedure, abridged:
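His-tagged human NAMPT from E. coli was preincubated 15 min at RT with compound in Hepes pH 7.5/MgCl2 buffer. Reaction ran 30 min at RT with 1 μM NAM, 100 μM PRPP and 2.5 mM ATP, then was quenched with formic acid. NMN was measured by RapidFire MS, normalized to L-cystathionine, and IC50 derived from % inhibition.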

Chain of NAMPT (P43490 whole entry): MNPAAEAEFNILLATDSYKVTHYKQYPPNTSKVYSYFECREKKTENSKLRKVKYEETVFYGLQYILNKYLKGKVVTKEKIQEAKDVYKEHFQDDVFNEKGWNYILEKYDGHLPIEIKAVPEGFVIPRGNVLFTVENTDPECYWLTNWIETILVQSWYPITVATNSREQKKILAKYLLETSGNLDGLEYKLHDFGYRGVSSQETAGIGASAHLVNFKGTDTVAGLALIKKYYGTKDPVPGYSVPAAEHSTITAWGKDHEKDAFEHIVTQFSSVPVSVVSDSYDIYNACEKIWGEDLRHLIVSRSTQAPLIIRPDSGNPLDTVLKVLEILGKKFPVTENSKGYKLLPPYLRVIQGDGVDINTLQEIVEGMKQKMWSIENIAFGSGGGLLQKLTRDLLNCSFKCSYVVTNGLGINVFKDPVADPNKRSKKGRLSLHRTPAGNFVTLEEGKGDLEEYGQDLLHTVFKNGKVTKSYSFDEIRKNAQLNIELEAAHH

For `COc1ccc(Cl)cc1S(=O)(=O)c1ccc(NC(=O)/C=C/c2cccnc2)cc1` [(2E)-N-{4-[(5-chloro-2-methoxybenzene)sulfonyl]phenyl}-3-(pyridin-3-yl)prop-2-enamide], the IC50 (in general, the concentration that inhibits the measured activity by half) in the assay on A2780 cells came to 12.6 nM; at NAMPT, 4.6 nM.

Consider `COc1ccc(F)cc1S(=O)(=O)c1ccc(NC(=O)/C=C/c2cccnc2)cc1` [(2E)-N-{4-[(5-fluoro-2-methoxybenzene)sulfonyl]phenyl}-3-(pyridin-3-yl)prop-2-enamide], for which the IC50 in the assay with A2780 cells came to 20.5 nM; at NAMPT, 14.5 nM.

Turning to `Cc1ccc(F)cc1S(=O)(=O)c1ccc(NC(=O)/C=C/c2cccnc2)cc1` [(2E)-N-{4-[(5-fluoro-2-methylbenzene)sulfonyl]phenyl}-3-(pyridin-3-yl)prop-2-enamide], the half-inhibitory concentration (IC50) in the assay on A2780 cells came out at 90.1 nM; at NAMPT it was 7.4 nM.

In the case of `O=C(/C=C/c1cccnc1)NCc1ccc(S(=O)(=O)c2ccccc2)cc1` [(2E)-N-{[4-(benzenesulfonyl)phenyl]methyl}-3-(pyridin-3-yl)prop-2-enamide], the values for the IC50 with A2780 cells and on NAMPT were 243 nM and 3 nM, respectively.

On to `O=C(Nc1ccc(S(=O)(=O)c2ccccc2)cc1)/C(F)=C/c1cccnc1` [(2Z)-N-[4-(benzenesulfonyl)phenyl]-2-fluoro-3-(pyridin-3-yl)prop-2-enamide], for which the IC50 was found to be 347 nM with A2780 cells and 7 nM at NAMPT.

As for `CC(C)CNC(=O)c1cccc(S(=O)(=O)c2ccc(NC(=O)/C=C/c3cccnc3)cc2)c1` [N-(2-methylpropyl)-3-({4-[(2E)-3-(pyridin-3-yl)prop-2-enamido]benzene}sulfonyl)benzamide], the half-maximal inhibitory concentration (IC50) with A2780 cells is 100 to 1000 nM; on NAMPT, 21.3 nM.

Regarding `CC(C)NC(=O)c1cccc(S(=O)(=O)c2ccc(NC(=O)/C=C/c3cccnc3)cc2)c1` [N-(propan-2-yl)-3-({4-[(2E)-3-(pyridin-3-yl)prop-2-enamido]benzene}sulfonyl)benzamide], the IC50 in the assay on A2780 cells is 100 to 1000 nM; on NAMPT, 17.6 nM.

Turning to `O=C(/C=C/c1cccnc1)Nc1ccc(S(=O)(=O)c2cccc(C(=O)NC3CCCC3)c2)cc1` [N-cyclopentyl-3-({4-[(2E)-3-(pyridin-3-yl)prop-2-enamido]benzene}sulfonyl)benzamide], the IC50 in the assay with A2780 cells is 100 to 1000 nM; on NAMPT it was 16.1 nM.

In the case of `CCNC(=O)c1cccc(S(=O)(=O)c2ccc(NC(=O)/C=C/c3cccnc3)cc2)c1` [N-ethyl-3-({4-[(2E)-3-(pyridin-3-yl)prop-2-enamido]benzene}sulfonyl)benzamide], the figures for the IC50 in the assay on A2780 cells and at NAMPT were 100 to 1000 nM and 7.3 nM, respectively.

Consider `CCNC(=O)c1ccc(S(=O)(=O)c2ccc(NC(=O)/C=C/c3cccnc3)cc2)cc1` [N-ethyl-4-({4-[(2E)-3-(pyridin-3-yl)prop-2-enamido]benzene}sulfonyl)benzamide], for which the IC50 in the assay with A2780 cells was 100 to 1000 nM; at NAMPT, 14.7 nM.
